Experiment: Ratio of ED50 for cytotoxicity against B16 melanoma to paclitaxel
Settings: mouse

With `CC(=O)O[C@H]1C(=O)[C@@]2(C)[C@H]([C@H](OC(=O)c3cccc(O)c3)[C@]3(O)C[C@H](OC(=O)[C@H](O)[C@@H](NC(=O)c4ccccc4)c4ccccc4)C(C)=C1C3(C)C)[C@]1(OC(C)=O)CO[C@@H]1C[C@@H]2O` the Ratio was > 20.

— ChEMBL document CHEMBL1129043, “Preparation of phenolic paclitaxel metabolites” (J Med Chem, 1996)
